We go through 11 compounds from ChEMBL document CHEMBL1201862, “PubChem BioAssay data set” (2004).

Some test systems named below: MDA-MB-231; SF-268; NCI-H23; RPMI-8226; SK-MEL-2; CAKI-1; HCT-116; Hs-578T; BT-549; HCT-15; UACC-257; HOP-92; SW-620; Malme-3M; OVCAR-4; UO-31; SF-295; A549; MOLT-4; CCRF-CEM.
Assay in all cases: DTP human tumour cell line panel, 48 h

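How tested: cells in 96-well plates exposed to compound for 48 hours at five concentrations. Here, GI50 denotes the concentration required for 50% inhibition of growth.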 Active and inactive are the calls of the source. Rule as the data show it: active = GI50 up to about 1.1 µM and inactive = higher.

As for `N=C(N)NC(=N)Nc1c(F)c(F)c(F)c(F)c1F`, the GI50 is 62.2 µM (inactive) in the assay with MDA-MB-231; > 100 µM (inactive) in the assay with SF-268; 87.1 µM (inactive) with NCI-H23; 52.7 µM (inactive) in the assay with RPMI-8226; > 100 µM (inactive) in the assay with SK-MEL-2; > 100 µM (inactive) with CAKI-1. Moreover, the GI50 is 70.5 µM (inactive) with HCT-116; 95.3 µM (inactive) in the assay with Hs-578T; 92.3 µM (inactive) in the assay with BT-549; greater than 100 µM with HCT-15; 23.6 µM (inactive) with UACC-257; 36.7 µM (inactive) with HOP-92. The GI50 with SW-620 is > 100 µM (inactive); in the assay on Malme-3M, 69 µM (inactive); in the assay on OVCAR-4 it was > 100 µM (inactive); in the assay with UO-31, > 100 µM (inactive); in the assay with SF-295, > 100 µM (inactive); in the assay with A549 it was > 100 µM (inactive).

Turning to `CC(/C=N\NC(=S)N1CCCCC1)=N/NC(=S)N1CCCCC1`, the GI50 is 2.45 µM (inactive) with MDA-MB-231; 1.05 µM (active) in the assay with SF-268; 2.42 µM (inactive) in the assay with NCI-H23; 2.32 µM (inactive) in the assay with RPMI-8226; 1.28 µM (inactive) with SK-MEL-2; 1.33 µM (inactive) in the assay on CAKI-1. For the same compound, the GI50 was 0.627 µM (active) with HCT-116; 1.41 µM (inactive) in the assay with Hs-578T; 3.03 µM (inactive) in the assay on BT-549; 0.42 µM with HCT-15; 0.514 µM (active) in the assay on MOLT-4; 2.94 µM (inactive) in the assay with UACC-257. Besides, the GI50 with HOP-92 is 2.38 µM (inactive); with SW-620, 0.935 µM (active); with Malme-3M it was 2.15 µM (inactive); in the assay on OVCAR-4, 2.3 µM (inactive); in the assay with UO-31 it was 0.649 µM (active); in the assay on SF-295 it was 0.627 µM (active). Also, the GI50 in the assay with A549 was 0.692 µM (active).

For `CCOC(=O)C1=C(C)OC2(O)C=CC(O)=C3C(=O)N(c4ccccc4)C(=O)C312` (stereo not given), the GI50 was 37.8 µM (inactive) in the assay on MDA-MB-231; 38.7 µM (inactive) in the assay with SF-268; 40.8 µM (inactive) in the assay on NCI-H23; 14.9 µM (inactive) with RPMI-8226; 30.5 µM (inactive) with SK-MEL-2; 48.8 µM (inactive) with CAKI-1. Moreover, the GI50 with HCT-116 was 54.8 µM (inactive); in the assay on Hs-578T, 32.9 µM (inactive); in the assay with BT-549, 31.6 µM (inactive); with HCT-15 it was 30.6 µM; in the assay on MOLT-4 it was 29.7 µM (inactive); with UACC-257, 39.1 µM (inactive). Also, the GI50 with HOP-92 is 21 µM (inactive); with Malme-3M, 20 µM (inactive); with OVCAR-4, 31.5 µM (inactive); in the assay on UO-31 it was 24.4 µM (inactive); in the assay on SF-295, > 100 µM (inactive); with A549 it was > 100 µM (inactive).

Regarding `CCOC(=O)c1c(NCc2ccccc2)n(-c2ccccc2)c(=S)n(-c2ccccc2)c1=O`, the GI50 in the assay with MDA-MB-231 was > 100 µM (inactive); in the assay on SF-268 it was > 100 µM (inactive); in the assay with NCI-H23 it was > 100 µM (inactive); in the assay with RPMI-8226 it was 35.6 µM (inactive); in the assay with SK-MEL-2, > 100 µM (inactive); in the assay with Hs-578T it was 19.5 µM (inactive). Besides, the GI50 in the assay with BT-549 is 36.9 µM (inactive); with HCT-15, 63.1 µM; with MOLT-4, 34.5 µM (inactive); with UACC-257, > 100 µM (inactive); in the assay with HOP-92, > 100 µM (inactive); with SW-620, > 100 µM (inactive). The GI50 in the assay with Malme-3M is > 100 µM (inactive); with OVCAR-4 it was 98.6 µM (inactive); in the assay on UO-31 it was 45.8 µM (inactive); with CCRF-CEM, 29.4 µM (inactive); in the assay with SF-295, 49.4 µM (inactive); in the assay on A549, 91.6 µM (inactive).

For `COc1cc([C@@H]2c3cc4c(cc3[C@@H](c3c(O)cc(O)c5c3O[C@H](c3ccc(O)c(O)c3)[C@@H](O)C5)[C@H]3COC(=O)[C@H]23)OCO4)cc(OC)c1OC`, the GI50 in the assay on MDA-MB-231 is 1.67 µM (inactive); in the assay on SF-268, 29.7 µM (inactive); in the assay with NCI-H23, 78 µM (inactive); in the assay with RPMI-8226, 19.6 µM (inactive); with SK-MEL-2, 1.88 µM (inactive); in the assay with CAKI-1, 1.97 µM (inactive). Also, the GI50 with HCT-116 is 21.1 µM (inactive); with Hs-578T, 34 µM (inactive); in the assay with BT-549, > 100 µM (inactive); in the assay with HCT-15, 39.2 µM; in the assay with MOLT-4, 30.5 µM (inactive); with UACC-257, 1.95 µM (inactive). Besides, the GI50 in the assay on HOP-92 was > 100 µM (inactive); in the assay with SW-620, 32 µM (inactive); in the assay on Malme-3M it was > 100 µM (inactive); with OVCAR-4 it was 1.8 µM (inactive); with CCRF-CEM it was 50.7 µM (inactive); with SF-295, 1.85 µM (inactive). In addition, the GI50 in the assay with A549 was 29.9 µM (inactive).

For `CC(C)(Cl)C(Br)CC/C(=C/CCl)CBr.CC(C)(Cl)C(Br)CC/C(=C\CCl)CBr` (stereo not given), the GI50 in the assay with MDA-MB-231 is 1.74 µM (inactive); in the assay with SF-268 it was 1.8 µM (inactive); with NCI-H23, 1.91 µM (inactive); in the assay with RPMI-8226, 1.17 µM (inactive); in the assay on SK-MEL-2 it was 3.21 µM (inactive); with HCT-116, 1.77 µM (inactive). Moreover, the GI50 in the assay on Hs-578T is 3.67 µM (inactive); in the assay with BT-549, 3.05 µM (inactive); with HCT-15 it was 1.43 µM; in the assay with MOLT-4, 1.34 µM (inactive); in the assay on UACC-257 it was 2.5 µM (inactive); with HOP-92, 2.07 µM (inactive). In addition, the GI50 in the assay on SW-620 is 1.92 µM (inactive); with Malme-3M, 1.71 µM (inactive); in the assay on OVCAR-4 it was 2.34 µM (inactive); in the assay on UO-31, 1.6 µM (inactive); with CCRF-CEM, 1.32 µM (inactive); in the assay with SF-295, 3.51 µM (inactive). Also, in the assay on A549, the GI50 was 14.4 µM (inactive).

As to `Nn1c(CCCCCCCCc2nnc(-c3c(O)ccc4ccccc34)n2N)nnc1-c1c(O)ccc2ccccc12`, the GI50 in the assay on MDA-MB-231, in the assay with SF-268, in the assay with NCI-H23, with RPMI-8226, in the assay with SK-MEL-2 and in the assay with CAKI-1 was > 100 µM (inactive) in each case. Besides, the GI50 in the assay with HCT-116 is > 100 µM (inactive); in the assay on Hs-578T, > 100 µM (inactive); in the assay on BT-549, > 100 µM (inactive); with HCT-15, greater than 100 µM; in the assay on MOLT-4, > 100 µM (inactive); in the assay with UACC-257, > 100 µM (inactive). Besides, the GI50 with HOP-92, with SW-620, in the assay with Malme-3M, with OVCAR-4, in the assay with UO-31 and in the assay on SF-295 was > 100 µM (inactive) in each case. Moreover, the GI50 in the assay on A549 is > 100 µM (inactive).

For `CC[C@@]1(O)C(=O)OCc2c1cc1n(c2=O)Cc2c-1nc1ccccc1c2/C=N\NC(=O)C(C)N` (stereo not given in full), the GI50 in the assay on MDA-MB-231 is 27 µM (inactive); with SF-268 it was < 0.017 µM (active); in the assay on NCI-H23 it was < 0.0214 µM (active); with SK-MEL-2, 13.1 µM (inactive); with CAKI-1, 0.071 µM (active); in the assay on HCT-116, 0.186 µM (active). The GI50 was 11.9 µM (inactive) in the assay on Hs-578T; 0.303 µM (active) with BT-549; 4.29 µM in the assay with HCT-15; < 0.0158 µM (active) in the assay on MOLT-4; 1.37 µM (inactive) with UACC-257; 0.179 µM (active) with HOP-92. Besides, the GI50 was 1.37 µM (inactive) in the assay with SW-620; 1.64 µM (inactive) in the assay on Malme-3M; 7.1 µM (inactive) in the assay on OVCAR-4; 0.182 µM (active) in the assay on UO-31; < 0.01 µM (active) in the assay with CCRF-CEM; < 0.0371 µM (active) in the assay on SF-295. The GI50 with A549 is 0.405 µM (active).

As for `O=c1c2cccnc2[s+]([O-])n1Cc1ccccc1` (stereo not given), the GI50 in the assay on MDA-MB-231, in the assay on SF-268, in the assay with NCI-H23, with RPMI-8226, in the assay on CAKI-1 and in the assay on HCT-116 was > 100 µM (inactive) in each case. The GI50 in the assay with Hs-578T was > 100 µM (inactive); in the assay on BT-549, > 100 µM (inactive); with HCT-15 it was greater than 100 µM; in the assay on MOLT-4, > 100 µM (inactive); in the assay with UACC-257, > 100 µM (inactive); with HOP-92 it was > 100 µM (inactive). Besides, the GI50 was > 100 µM (inactive) in the assay with SW-620; > 100 µM (inactive) with Malme-3M; > 100 µM (inactive) in the assay with OVCAR-4; > 100 µM (inactive) with UO-31; 3.01 µM (inactive) with CCRF-CEM; > 100 µM (inactive) in the assay with SF-295. Further, the GI50 with A549 is > 100 µM (inactive).

For `C[C@H](OC(=O)/C=C/c1ccc(O)c(O)c1)[C@H](C)OC(=O)/C=C/c1ccc(O)c(O)c1`, the GI50 in the assay on MDA-MB-231 was 10.9 µM (inactive); with SF-268, 7.43 µM (inactive); in the assay on NCI-H23 it was 4.29 µM (inactive); in the assay on RPMI-8226, 9.59 µM (inactive); with SK-MEL-2 it was 10.4 µM (inactive); in the assay with CAKI-1, 7.89 µM (inactive). Besides, the GI50 in the assay with HCT-116 is 3.72 µM (inactive); with Hs-578T it was 6.65 µM (inactive); in the assay with BT-549, 10.4 µM (inactive); with HCT-15, 4.71 µM; in the assay on MOLT-4, 2.49 µM (inactive); in the assay with UACC-257 it was 10.1 µM (inactive). The GI50 in the assay on HOP-92 was 15 µM (inactive); with SW-620 it was 3.93 µM (inactive); in the assay with Malme-3M, 14.7 µM (inactive); in the assay on OVCAR-4 it was 5.09 µM (inactive); with UO-31 it was 4.8 µM (inactive); in the assay with SF-295 it was 6.27 µM (inactive). Further, the GI50 in the assay with A549 was 7.94 µM (inactive).

With `COc1cc(Nc2nc3ccccc3nc2C(=O)O)cc(OC)c1OC`, the GI50 with MDA-MB-231 was 16.4 µM (inactive); in the assay on SF-268, 28.3 µM (inactive); in the assay on NCI-H23, 75.7 µM (inactive); in the assay on RPMI-8226, 70 µM (inactive); in the assay with CAKI-1, 16.4 µM (inactive); in the assay on HCT-116, > 100 µM (inactive). The GI50 with Hs-578T is 20.8 µM (inactive); with BT-549, 89.9 µM (inactive); with HCT-15, 32.4 µM; in the assay with MOLT-4, > 100 µM (inactive); in the assay with UACC-257, 87.3 µM (inactive); in the assay on HOP-92, 25.9 µM (inactive). For the same compound, the GI50 in the assay on SW-620 was > 100 µM (inactive); with Malme-3M, > 100 µM (inactive); in the assay with UO-31 it was 21.6 µM (inactive); with CCRF-CEM it was 83.2 µM (inactive); with SF-295, 23.9 µM (inactive); in the assay with A549 it was > 100 µM (inactive).

Broadly, the GI50 is the concentration giving 50% growth inhibition.
